From PubChem BioAssay AID1259407 (Chemical Carcinogenesis Research Information System (CCRIS), 2018)
Activity calls are given as the source filed them. How the calls were made is not given here.

Tested on: CCRIS mutagenicity, Ames/micronucleus/aberration tests
Assay: CCRIS mutagenicity studies
[1] = Test System: AMES SALMONELLA TYPHIMURIUM, Strain/Indicator: TA97, Metabolic Activation: NONE, Method: PREINCUBATION
[2] = Test System: AMES SALMONELLA TYPHIMURIUM, Strain/Indicator: TA97, Metabolic Activation: RAT, LIVER, S-9, AROCLOR 1254 (10%), Method: PREINCUBATION
[3] = Test System: AMES SALMONELLA TYPHIMURIUM, Strain/Indicator: TA98, Metabolic Activation: NONE, Method: PREINCUBATION
[4] = Test System: AMES SALMONELLA TYPHIMURIUM, Strain/Indicator: TA98, Metabolic Activation: RAT, LIVER, S-9, AROCLOR 1254 (10%), Method: PREINCUBATION
[5] = Test System: AMES SALMONELLA TYPHIMURIUM, Strain/Indicator: TA100, Metabolic Activation: NONE, Method: PREINCUBATION
[6] = Test System: AMES SALMONELLA TYPHIMURIUM, Strain/Indicator: TA100, Metabolic Activation: RAT, LIVER, S-9, AROCLOR 1254 (10%), Method: PREINCUBATION
[7] = Test System: AMES SALMONELLA TYPHIMURIUM, Strain/Indicator: TA100, Metabolic Activation: NONE, Method: STANDARD PLATE

Compound: Nc1ccc(Br)cc1
- mutagenic call (End Point: IN VITRO MICRONUCLEUS, Test System: CHL/IU CELLS, Metabolic Activation: RAT, LIVER, S-9, PHENOBARBITAL AND 5,6-BENZOFLAVONE): active; positive
- mutagenic call (Test System: AMES SALMONELLA TYPHIMURIUM, Strain/Indicator: TA97, Metabolic Activation: HAMSTER, LIVER, S-9, AROCLOR 1254 (10%), Method: PREINCUBATION): inactive; negative
- mutagenic call (Test System: AMES SALMONELLA TYPHIMURIUM, Strain/Indicator: TA97, Metabolic Activation: HAMSTER, LIVER, S-9, AROCLOR 1254 (30%), Method: PREINCUBATION): inactive; negative
- mutagenic call [1]: inactive; negative
- mutagenic call [2]: inactive; negative
- mutagenic call (Test System: AMES SALMONELLA TYPHIMURIUM, Strain/Indicator: TA97, Metabolic Activation: RAT, LIVER, S-9, AROCLOR 1254 (30%), Method: PREINCUBATION): inactive; negative
- mutagenic call (Test System: AMES SALMONELLA TYPHIMURIUM, Strain/Indicator: TA98, Metabolic Activation: HAMSTER, LIVER, S-9, AROCLOR 1254 (10%), Method: PREINCUBATION): inactive; negative
- mutagenic call (Test System: AMES SALMONELLA TYPHIMURIUM, Strain/Indicator: TA98, Metabolic Activation: HAMSTER, LIVER, S-9, AROCLOR 1254 (30%), Method: PREINCUBATION): inactive; negative
- mutagenic call [3]: inactive; negative
- mutagenic call [4]: inactive; negative
- mutagenic call (Test System: AMES SALMONELLA TYPHIMURIUM, Strain/Indicator: TA98, Metabolic Activation: RAT, LIVER, S-9, AROCLOR 1254 (30%), Method: PREINCUBATION): inactive; negative
- mutagenic call (Test System: AMES SALMONELLA TYPHIMURIUM, Strain/Indicator: TA100, Metabolic Activation: HAMSTER, LIVER, S-9, AROCLOR 1254 (10%), Method: PREINCUBATION): inactive; negative
- mutagenic call (Test System: AMES SALMONELLA TYPHIMURIUM, Strain/Indicator: TA100, Metabolic Activation: HAMSTER, LIVER, S-9, AROCLOR 1254 (30%), Method: PREINCUBATION): inactive; negative
- mutagenic call [5]: inactive; negative
- mutagenic call [6]: inactive; negative
- mutagenic call (Test System: AMES SALMONELLA TYPHIMURIUM, Strain/Indicator: TA100, Metabolic Activation: RAT, LIVER, S-9, AROCLOR 1254 (30%), Method: PREINCUBATION): inactive; negative
- mutagenic call (Test System: AMES SALMONELLA TYPHIMURIUM, Strain/Indicator: TA1535, Metabolic Activation: HAMSTER, LIVER, S-9, AROCLOR 1254 (10%), Method: PREINCUBATION): inactive; negative
- mutagenic call (Test System: AMES SALMONELLA TYPHIMURIUM, Strain/Indicator: TA1535, Metabolic Activation: HAMSTER, LIVER, S-9, AROCLOR 1254 (30%), Method: PREINCUBATION): inactive; negative
- mutagenic call (Test System: AMES SALMONELLA TYPHIMURIUM, Strain/Indicator: TA1535, Metabolic Activation: NONE, Method: PREINCUBATION): inactive; negative
- mutagenic call (Test System: AMES SALMONELLA TYPHIMURIUM, Strain/Indicator: TA1535, Metabolic Activation: RAT, LIVER, S-9, AROCLOR 1254 (10%), Method: PREINCUBATION): inactive; negative
- mutagenic call (Test System: AMES SALMONELLA TYPHIMURIUM, Strain/Indicator: TA1535, Metabolic Activation: RAT, LIVER, S-9, AROCLOR 1254 (30%), Method: PREINCUBATION): inactive; negative
- mutagenic call (Test System: E. COLI, Strain/Indicator: WP2 UVRA, Metabolic Activation: NONE, Method: FLUCTUATION TEST): inactive; negative

Compound: C=C.CC(N)c1ccccc1.[Cl-].[Cl-].[Pt+2] (stereo not given)
- mutagenic call (Test System: AMES SALMONELLA TYPHIMURIUM, Strain/Indicator: TA92, Metabolic Activation: NONE, Method: STANDARD PLATE): inactive; negative
- mutagenic call (Test System: AMES SALMONELLA TYPHIMURIUM, Strain/Indicator: TA98, Metabolic Activation: NONE, Method: STANDARD PLATE): inactive; negative
- mutagenic call [7]: inactive; negative
- mutagenic call (Test System: AMES SALMONELLA TYPHIMURIUM, Strain/Indicator: TA2410, Metabolic Activation: NONE, Method: STANDARD PLATE): inactive; negative

Compound: CC#CC(OC(=O)NC1CCCCC1)(c1ccccc1)c1ccccc1
- mutagenic call [7]: active; positive

Compound: COC(=O)c1ccc(/C=N/n2nnc3c([nH]c4ccccc43)c2=O)cc1
- mutagenic call [1]: active; positive
- mutagenic call [2]: active; positive
- mutagenic call [3]: active; positive
- mutagenic call [4]: active; positive
- mutagenic call [5]: inactive; negative
- mutagenic call [6]: active; positive
- mutagenic call (Test System: AMES SALMONELLA TYPHIMURIUM, Strain/Indicator: TA102, Metabolic Activation: NONE, Method: PREINCUBATION): inactive; negative
- mutagenic call (Test System: AMES SALMONELLA TYPHIMURIUM, Strain/Indicator: TA102, Metabolic Activation: RAT, LIVER, S-9, AROCLOR 1254 (10%), Method: PREINCUBATION): active; positive
